Source: PubChem BioAssay (NCI)
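Grown in 96-well plates, cells were treated for 48 hours with each compound at five concentrations. Insufficient inhibition: endpoint recorded as highest concentration tested. Here, GI50 denotes the concentration required for 50% inhibition of growth. At the TGI there is no net growth.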

What was measured:
Assay in all cases: NCI tumour cell line growth inhibition, 48 h
PC-3 prostate = tested on: PC-3 prostate
DU-145 prostate = tested on: DU-145 prostate
HCC-2998 colon = tested on: HCC-2998 colon
UO-31 renal = tested on: UO-31 renal
LOX IMVI melanoma = tested on: LOX IMVI melanoma
SF-268 CNS = tested on: SF-268 CNS
SF-295 CNS = tested on: SF-295 CNS
786-0 renal = tested on: 786-0 renal
A498 renal = tested on: A498 renal
NCI-H522 lung = tested on: NCI-H522 lung

Structure (SMILES)	TGI (PC-3 prostate)	TGI (DU-145 prostate)	TGI (HCC-2998 colon)	TGI (UO-31 renal)	TGI (LOX IMVI melanoma)	TGI (SF-268 CNS)	TGI (SF-295 CNS)	TGI (786-0 renal)	TGI (A498 renal)	TGI (NCI-H522 lung)	GI50 (DU-145 prostate)
OC1CSc2nc3ccccc3n2C1 (stereo not given)	> 100 µM	> 100 µM	> 100 µM	> 100 µM	> 100 µM	> 100 µM	> 100 µM	> 100 µM	> 100 µM	–	–
CCOC1CC(C)N(C(=O)c2ccccc2)O1 (stereo not given)	> 100 µM	> 100 µM	> 100 µM	> 100 µM	–	> 100 µM	> 100 µM	> 100 µM	> 100 µM	–	–
CCN(CC)c1oc(N(CC)CC)c(C(=O)Nc2ccccn2)c(=O)c1C(C)=O	–	–	–	> 100 µM	–	> 100 µM	–	> 100 µM	> 100 µM	> 100 µM	–
COc1ccc2nc3cc(Cl)ccc3c(SCC(=O)Nc3ccccc3-c3ccccc3NC(=O)CSc3c4ccc(Cl)cc4nc4ccc(OC)cc34)c2c1	–	–	> 100 µM	> 100 µM	> 100 µM	> 100 µM	> 100 µM	> 100 µM	> 100 µM	> 100 µM	–
CCOc1cc2c(c(OCC)c1O)CC[C@@H]1[C@@H]2CC[C@]2(C)[C@@H](O)CC[C@@H]12	–	37.4 µM	–	79.3 µM	17.1 µM	52.1 µM	13.1 µM	> 100 µM	41.6 µM	23.1 µM	3.32 µM
COc1ccc(-c2oc3c(OC)c(OC)cc(O)c3c(=O)c2OC)cc1	–	> 100 µM	> 100 µM	> 100 µM	> 100 µM	> 100 µM	> 100 µM	> 100 µM	> 100 µM	> 100 µM	–
CCOC(=O)c1nc2ccc(C(F)(F)F)cc2nc1Oc1ccc(C(=O)OC)cc1	> 100 µM	> 100 µM	> 100 µM	> 100 µM	> 100 µM	> 100 µM	> 100 µM	> 100 µM	> 100 µM	–	–
CCOc1ccc(NC(=O)C(=O)C(C(=O)c2ccc3ccccc3c2)C2OC(=O)c3ccccc32)cc1 (stereo not given)	–	–	23.2 µM	34 µM	33.2 µM	62.4 µM	–	40.5 µM	45.8 µM	31.6 µM	–
Cc1ccc(N(C)S(=O)(=O)c2ccccc2[N+](=O)[O-])cc1	> 100 µM	> 100 µM	–	> 100 µM	> 100 µM	> 100 µM	> 100 µM	> 100 µM	–	94.6 µM	–
NC(=O)NC12CC3CC(CC(F)(C3)C1)C2	–	–	> 100 µM	> 100 µM	> 100 µM	–	–	> 100 µM	> 100 µM	> 100 µM	–
N#Cc1c(-c2ccccc2)c(CN2CCCCC2)c(=O)n2c1[nH]c1ccccc12	> 100 µM	–	> 100 µM	> 100 µM	50.8 µM	> 100 µM	> 100 µM	95.6 µM	> 100 µM	61.7 µM	–
O=c1oc2c(Cl)cc(Cl)cc2cc1C1=CSC2=NCCN12	> 100 µM	> 100 µM	–	> 100 µM	> 100 µM	–	> 100 µM	> 100 µM	–	–	–
CC(Oc1ccc(OCC2CCCCC2)cc1)C(=O)NCc1ccco1 (stereo not given)	–	–	> 100 µM	92.3 µM	54.3 µM	> 100 µM	–	> 100 µM	86.7 µM	35.3 µM	–
O=C1CC(=O)NC(=NNS(=O)(=O)c2ccc(Cl)cc2)N1	> 100 µM	> 100 µM	> 100 µM	> 100 µM	–	> 100 µM	> 100 µM	> 100 µM	> 100 µM	> 100 µM	–
Cn1cc(-c2csc(-c3cn(C)c4ccccc34)n2)c2ccccc21	89.8 µM	> 100 µM	–	> 100 µM	> 100 µM	> 100 µM	> 100 µM	> 100 µM	48.1 µM	> 100 µM	–
CC[C@@]1(O)C(=O)OCc2c1cc1n(c2=O)Cc2c-1nc1ccccc1c2/C=N/NC(=O)c1ccc(N)cc1	> 100 µM	16.8 µM	> 69.9 µM	25.6 µM	0.5 µM	> 100 µM	14.7 µM	5.03 µM	6.18 µM	–	–
COc1cccc(/C=C2\S/C(=N/Nc3nc(-c4ccc([N+](=O)[O-])cc4)cs3)NC2=O)c1O	40.2 µM	68.1 µM	33.7 µM	28.9 µM	17.1 µM	21.8 µM	38.7 µM	38.9 µM	50.9 µM	–	–
Cc1ccc(C(=O)N/N=C(\N=Nc2ccc(C(=O)O)cc2)c2ccc(N(CCC#N)CCC#N)cc2C)cc1	> 100 µM	> 100 µM	> 100 µM	> 100 µM	> 100 µM	–	> 100 µM	> 100 µM	> 100 µM	–	–

Structure (SMILES)	TGI (PC-3 prostate)	TGI (DU-145 prostate)	TGI (HCC-2998 colon)	TGI (UO-31 renal)	TGI (LOX IMVI melanoma)	TGI (SF-268 CNS)	TGI (SF-295 CNS)	TGI (786-0 renal)	TGI (A498 renal)	TGI (NCI-H522 lung)	GI50 (DU-145 prostate)
O=C(N/N=C/c1ccccc1)c1cccc2nc3ccccc3nc12	> 100 µM	> 100 µM	–	> 100 µM	> 100 µM	> 100 µM	> 86.5 µM	> 100 µM	> 100 µM	> 100 µM	–
Nc1nc(-c2ccco2)cc(-c2ccc(CO)o2)n1	–	–	–	> 100 µM	> 100 µM	> 100 µM	> 100 µM	> 100 µM	–	> 100 µM	–
COc1cccc(NC(=O)CC(=O)N2N=C(n3ccc4ccccc43)CC2c2ccccc2)c1 (stereo not given)	–	–	> 100 µM	> 100 µM	> 100 µM	> 100 µM	> 100 µM	> 100 µM	> 100 µM	> 100 µM	–
COC1=C(C)C(=O)c2c(cc3c(c2O)C(C)(CCC=C(C)C)C(C)O3)C1=O (stereo not given)	–	–	> 78.8 µM	> 100 µM	> 100 µM	> 100 µM	52.7 µM	> 100 µM	35 µM	> 100 µM	–
O=C1c2ccccc2N2Oc3ccccc3C12c1ccccc1 (stereo not given)	–	–	> 100 µM	> 100 µM	–	> 100 µM	> 100 µM	> 100 µM	> 100 µM	> 100 µM	–
Cc1ccc(N/C(SCc2ccccc2)=C(\C(Cl)=C(Cl)Cl)[N+](=O)[O-])c(C)c1	> 100 µM	> 100 µM	> 100 µM	63.5 µM	–	29.8 µM	94.9 µM	54.3 µM	74.1 µM	–	–
COc1cc2c(cc1OC)[C@@H](Nc1ccc(F)cc1)C1COC(=O)[C@@H]1C2c1cc(OC)c(O)c(OC)c1 (stereo not given in full)	–	–	9.9 µM	15.4 µM	> 43.4 µM	> 67.1 µM	6.28 µM	2.51 µM	7.78 µM	18.9 µM	–
CCOc1ccc(N/C(=C(/C(Cl)=C(/Cl)NC(C)(C)C)[N+](=O)[O-])n2nnc3ccccc32)cc1	83.5 µM	–	> 100 µM	> 100 µM	–	42.7 µM	78.8 µM	36.7 µM	> 100 µM	–	–
CCc1ccccc1NC(=O)/C(N=O)=C(/C)O	–	–	> 100 µM	> 100 µM	> 100 µM	> 100 µM	> 100 µM	> 100 µM	> 100 µM	> 100 µM	–
N#Cc1c(O)c(/C=N/c2ncccn2)c(=O)n2c1[nH]c1ccccc12	> 100 µM	–	> 100 µM	> 100 µM	> 100 µM	> 100 µM	> 100 µM	> 100 µM	> 100 µM	> 100 µM	–
Cc1cccc(N/C(Sc2ccccc2)=C(/C(Cl)=C(Cl)Cl)[N+](=O)[O-])c1	> 100 µM	62.2 µM	> 100 µM	29.9 µM	–	34.2 µM	36.2 µM	32.9 µM	40.6 µM	–	–
Cc1ccc2c(/C=C/c3ccc(N(C)C)cc3)ccc(C(C)C)cc1-2	> 100 µM	> 100 µM	–	> 100 µM	> 100 µM	> 100 µM	> 100 µM	> 100 µM	> 100 µM	> 100 µM	–
COC(=O)C12OC3CO[Si](C(C)C)(C(C)C)O[Si](C(C)C)(C(C)C)OC3C1Oc1nc(=O)ccn12 (stereo not given)	29.2 µM	32.5 µM	–	29.9 µM	31.6 µM	24.6 µM	29.6 µM	31.6 µM	38.8 µM	–	–
ClCCCCCc1c2nc(c(CCCCCCl)c3ccc([nH]3)c(CCCCCCl)c3ccc([nH]3)c(CCCCCCl)c3nc1C=C3)C=C2	> 100 µM	–	> 100 µM	> 100 µM	> 100 µM	> 100 µM	> 100 µM	> 100 µM	> 100 µM	> 100 µM	–
CCCCCCCCC/C=C1\CCC(CN(C)C)C1=O (stereo not given)	–	–	10.5 µM	4.04 µM	2.59 µM	3.71 µM	12.7 µM	0.963 µM	6.4 µM	4.78 µM	–
CN1CC2CN(Cc3ccccc3)CCN2c2cccnc21 (stereo not given)	> 100 µM	–	–	> 100 µM	49.4 µM	> 100 µM	> 100 µM	> 100 µM	> 100 µM	> 100 µM	–
Cc1n(Cc2ccccc2)nc2sc(N)n[n+]12	> 100 µM	> 100 µM	–	> 100 µM	> 100 µM	> 100 µM	> 100 µM	> 100 µM	> 100 µM	> 100 µM	–
CCN1CN(c2ccccc2)C2(CCN(CC(CC3OCCO3)c3ccc(F)cc3)CC2)C1=O (stereo not given)	> 100 µM	–	46.1 µM	> 74.8 µM	35.1 µM	38.2 µM	18.9 µM	39 µM	9.51 µM	26.6 µM	–
